{
  "source": "patent US9789044B2",
  "about": "“Compounds and methods for repelling blood-feeding arthropods and deterring their landing and feeding” (SCOTTS CANADA LTD, priority 2008, dated 2017)",
  "key": {"mosquitoes": {"tested_on": "mosquitoes", "conditions": "in vivo; cited from earlier work"}, "Aedes aegypti [1]": {"tested_on": "Aedes aegypti", "experiment": "General bioassay: treated human forearm in cage with host-seeking female mosquitoes, complete protection time (modified WHO 1996 protocol)", "type": "in vivo", "conditions": "10% formulation in mineral oil, 1.5 mg (total composition) per cm^2 on human forearm skin", "protocol": "A black-eyed Liverpool strain of Aedes. aegypti was obtained from Dr. Carl Lowenberger, Simon Fraser University (SFU). Insects were reared under standardized conditions (60-70% relative humidity, 26-28° C., 14 h light:10 h dark photoperiod) in SFU's insectary. Neonate larvae that hatched in glass dishes of sterilized hypoxic water were transferred to trays of distilled water provisioned with Nutrafin® Basix Staple Food fish diet. Pupae were collected daily and separated by sex, and 15 females and 10 males were placed in a paper cup (7.5 cm diameter, 8.5 cm high) with a mesh lid. Emergent adults were fed a 10% (w/v) sucrose solution via braided cotton dental rolls. Arm-fed gravid females were offered water-containing paper cups, lined with paper-towel as an oviposition substrate. Candidate repellents and deterrents were bioassayed according to a modified protocol from the World Health Organization (1996). At least 1 hour prior to each bioassay, 75 host-seeking non blood-fed, nulliparous, 5- to 8-day-old female Aedes aegypti were placed into a wood-framed cage (26.5 cm on each side and 42.5 cm high) with a wooden floor, screened mesh sides and top, and a clear acrylic front fitted with a cotton stockinette sleeve (10 cm diameter). […] The time elapsed from experiment initiation to first bite was recorded as deterrent failure or complete protection time. […]"}, "Anopheles gambiae": {"tested_on": "Anopheles gambiae", "conditions": "by itself or in combination with an adjuvant; cited from earlier work"}, "Culex quinquefasciatus": {"tested_on": "Culex quinquefasciatus", "conditions": "by itself or in combination with an adjuvant; cited from earlier work"}, "Aedes aegypti [2]": {"tested_on": "Aedes aegypti", "conditions": "by itself or in combination with an adjuvant; cited from earlier work"}},
  "data": [
    {"smiles": "C=CCSCCCCCCCCCO", "note": "[9-allylsulfanylnonan-1-ol]", "values": [
      {"measurement": "repellency to mosquitoes", "setting": "mosquitoes", "result": "repellent"}
    ]},
    {"smiles": "C=CCSCCCCCCCCO", "note": "[8-allylsulfanyl-1-octanol]", "values": [
      {"measurement": "average duration of protection from bites by Aedes aegypti", "setting": "Aedes aegypti [1]; Experiments 1-6, 3-4 replicates", "result": 123, "unit": "min"},
      {"measurement": "deterring biting, effectiveness relative to DEET", "setting": "Anopheles gambiae", "result": "more effective than DEET"},
      {"measurement": "deterring biting, effectiveness relative to DEET", "setting": "Culex quinquefasciatus", "result": "more effective than DEET"},
      {"measurement": "deterring biting, effectiveness relative to DEET", "setting": "Aedes aegypti [2]", "result": "more effective than DEET"},
      {"measurement": "repellency to mosquitoes", "setting": "mosquitoes", "result": "repellent"}
    ]},
    {"smiles": "C=CCSCCCCCCC(C)O", "note": "(centres unmarked) [8-allylsulfanyloctan-2-ol]", "values": [
      {"measurement": "repellency to mosquitoes", "setting": "mosquitoes", "result": "repellent"}
    ]},
    {"smiles": "C=CCSCCCCCCCC(=O)N(CC)CC", "note": "[(N,N)-diethyl-8-allylsulfanyl-octanamide]", "values": [
      {"measurement": "average duration of protection from bites by Aedes aegypti", "setting": "Aedes aegypti [1]; Experiment 7, 4 replicates", "result": 156, "unit": "min"}
    ]}
  ]
}
